Reference: ChEMBL document CHEMBL5537206 (J Med Chem, 2024)
Active and inactive are the calls of the source. The calls are words filed in the database; no cut-off is given here.

Key:
[1] = Toxicity in BALB/c nude mouse assessed as effect on kidney at 20 to 60 mg/kg, ip measured after 22 days by H and E staining based analysis; format: organism-based; settings: in vivo, 528 h, dose 20-60 mg/kg, time 22 day
[2] = molecular target: T1, Serine/threonine-protein kinase AKT (Homo sapiens) (UniProt P31751+Q9Y243+P31749); experiment: Inhibition of AKT phosphorylation in human Osimertinib-resistant NCI-H1975 cell (AZDR) at 0.1 to 10 uM incubated for 24 hrs by Western blot analysis; format: cell-based; settings: dose 0.1-10 µM
T1 sequence (P31749 whole entry, looked up): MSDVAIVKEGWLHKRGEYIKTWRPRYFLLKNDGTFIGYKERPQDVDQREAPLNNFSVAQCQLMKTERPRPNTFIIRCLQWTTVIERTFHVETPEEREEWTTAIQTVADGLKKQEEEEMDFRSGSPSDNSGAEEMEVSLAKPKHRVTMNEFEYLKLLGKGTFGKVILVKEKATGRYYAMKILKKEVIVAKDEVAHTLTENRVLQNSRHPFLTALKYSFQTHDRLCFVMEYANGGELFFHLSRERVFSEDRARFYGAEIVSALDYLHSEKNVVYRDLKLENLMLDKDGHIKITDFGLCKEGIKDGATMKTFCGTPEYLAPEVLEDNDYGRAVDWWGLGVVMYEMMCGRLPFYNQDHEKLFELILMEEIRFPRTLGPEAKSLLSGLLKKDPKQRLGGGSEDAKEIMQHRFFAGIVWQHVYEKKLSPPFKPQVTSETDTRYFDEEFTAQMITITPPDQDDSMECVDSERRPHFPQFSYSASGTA
T1 sequence (P31751 whole entry, looked up): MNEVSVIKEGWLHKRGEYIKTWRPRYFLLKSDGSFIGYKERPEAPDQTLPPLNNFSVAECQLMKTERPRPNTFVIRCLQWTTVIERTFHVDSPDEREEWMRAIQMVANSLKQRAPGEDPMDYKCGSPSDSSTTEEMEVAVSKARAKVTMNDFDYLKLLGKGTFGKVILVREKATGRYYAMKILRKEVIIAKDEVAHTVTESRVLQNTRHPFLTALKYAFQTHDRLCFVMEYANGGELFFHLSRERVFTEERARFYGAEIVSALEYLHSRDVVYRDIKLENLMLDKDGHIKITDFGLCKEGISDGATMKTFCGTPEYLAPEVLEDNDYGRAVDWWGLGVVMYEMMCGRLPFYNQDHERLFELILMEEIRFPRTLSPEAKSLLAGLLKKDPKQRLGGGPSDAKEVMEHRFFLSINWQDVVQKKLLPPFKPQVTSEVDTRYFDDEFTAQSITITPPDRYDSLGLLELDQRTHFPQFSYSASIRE
T1 sequence (Q9Y243 whole entry, looked up): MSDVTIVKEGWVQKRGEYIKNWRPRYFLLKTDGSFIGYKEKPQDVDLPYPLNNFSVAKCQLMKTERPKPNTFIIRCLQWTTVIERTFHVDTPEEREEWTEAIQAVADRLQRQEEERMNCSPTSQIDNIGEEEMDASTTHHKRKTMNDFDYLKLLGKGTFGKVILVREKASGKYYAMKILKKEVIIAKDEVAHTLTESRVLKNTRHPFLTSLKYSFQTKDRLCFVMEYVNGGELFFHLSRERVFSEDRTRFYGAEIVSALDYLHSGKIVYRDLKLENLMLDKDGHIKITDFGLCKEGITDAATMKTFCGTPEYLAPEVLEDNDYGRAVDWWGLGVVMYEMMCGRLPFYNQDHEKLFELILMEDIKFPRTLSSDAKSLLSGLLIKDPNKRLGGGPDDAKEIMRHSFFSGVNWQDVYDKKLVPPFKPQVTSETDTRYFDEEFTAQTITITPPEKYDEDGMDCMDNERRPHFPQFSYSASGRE

[3] = Toxicity in BALB/c nude mouse assessed as effect on lung at 20 to 60 mg/kg, ip measured after 22 days by H and E staining based analysis; format: organism-based; settings: in vivo, 528 h, dose 20-60 mg/kg, time 22 day
[4] = Toxicity in BALB/c nude mouse assessed as effect on liver at 20 to 60 mg/kg, ip measured after 22 days by H and E staining based analysis; format: organism-based; settings: in vivo, 528 h, dose 20-60 mg/kg, time 22 day
[5] = system: Mus musculus; experiment: In vivo inhibition of EGFR L858R/T790M mutant in BALB/c nude mouse xenografted with human Osimertinib-resistant NCI-H1975 cell (AZDR) assessed as downregulation of AKT phosphorylation at 60 mg/kg, ip measured after 22 days; format: functional, organism-based; settings: time 22.0 day
[6] = system: MCF7; experiment: Antiproliferative activity against human MCF7 cells incubated for 72 hrs by MTT assay; format: functional, cell-based; settings: MCF7, 72 h
[7] = molecular target: T2, Tyrosine-protein kinase ITK/TSK (Homo sapiens) (UniProt Q08881); experiment: Inhibition of human ITK at 1 uM relative to control
T2 sequence (whole entry): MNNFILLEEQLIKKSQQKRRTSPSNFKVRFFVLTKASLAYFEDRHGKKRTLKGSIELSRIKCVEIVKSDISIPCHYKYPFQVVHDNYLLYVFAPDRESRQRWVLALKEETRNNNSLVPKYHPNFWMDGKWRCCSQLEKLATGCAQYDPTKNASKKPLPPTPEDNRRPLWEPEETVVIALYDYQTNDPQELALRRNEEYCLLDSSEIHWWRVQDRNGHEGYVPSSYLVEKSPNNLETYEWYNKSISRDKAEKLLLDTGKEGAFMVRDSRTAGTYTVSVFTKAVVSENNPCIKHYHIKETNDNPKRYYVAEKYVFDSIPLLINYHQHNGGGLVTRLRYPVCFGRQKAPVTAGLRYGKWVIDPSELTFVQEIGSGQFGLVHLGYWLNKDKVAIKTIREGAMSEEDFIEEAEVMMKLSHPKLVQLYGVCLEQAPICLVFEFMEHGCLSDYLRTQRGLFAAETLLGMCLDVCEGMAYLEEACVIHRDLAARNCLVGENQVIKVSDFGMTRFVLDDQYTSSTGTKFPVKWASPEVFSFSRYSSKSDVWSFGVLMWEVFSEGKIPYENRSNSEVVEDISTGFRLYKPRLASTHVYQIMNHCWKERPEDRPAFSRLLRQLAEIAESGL

[8] = system: Osimertinib-resistant NCI-H1975 cell; experiment: Induction of apoptosis in human Osimertinib-resistant NCI-H1975 cell (AZDR) assessed as early apoptotic cells at 0.1 uM incubated for 24 hrs by Annexin V and propidium iodide staining based flow cytometry analysis (reference value: 3.38%); format: functional
[9] = Toxicity in BALB/c nude mouse assessed as effect on spleen at 20 to 60 mg/kg, ip measured after 22 days by H and E staining based analysis; format: organism-based; settings: in vivo, 528 h, dose 20-60 mg/kg, time 22 day
[10] = system: Osimertinib-resistant NCI-H1975 cell; experiment: Antiproliferative activity against human Osimertinib-resistant NCI-H1975 cell (AZDR) incubated for 72 hrs by MTT assay; format: functional, cell-based
[11] = system: Osimertinib-resistant NCI-H1975 cell; experiment: Anticancer activity against human Osimertinib-resistant NCI-H1975 cell (AZDR) xenografted in BALB/c nude mouse model assessed as reduction in tumor weight administered as ip dose and measured upto 22 days; format: functional, organism-based; settings: dose 20-60 mg/kg, time <= 22.0 day
[12] = system: Osimertinib-resistant NCI-H1975 cell; experiment: Anticancer activity against human Osimertinib-resistant NCI-H1975 cell (AZDR) xenografted in BALB/c nude mouse model assessed as increase in tumor cell apoptosis administered as ip dose by TUNEL assay; format: functional, organism-based; settings: dose 20-60 mg/kg
[13] = system: Osimertinib-resistant NCI-H1975 cell; experiment: Induction of apoptosis in human Osimertinib-resistant NCI-H1975 cell (AZDR) assessed as late apoptotic cells at 1 uM incubated for 24 hrs by Annexin V and propidium iodide staining based flow cytometry analysis (reference value: 1.06%); format: functional
[14] = system: Osimertinib-resistant NCI-H1975 cell; experiment: Induction of apoptosis in human Osimertinib-resistant NCI-H1975 cell (AZDR) assessed as increase in number of apoptotic cells measured after 24 hrs by Hoechst 33258 staining based analysis; format: functional; settings: dose 0.1-10 µM
[15] = system: Osimertinib-resistant NCI-H1975 cell; experiment: Anticancer activity against human Osimertinib-resistant NCI-H1975 cell (AZDR) xenografted in BALB/c nude mouse model assessed as inhibition of tumor growth administered as ip dose and measured upto 22 days; format: functional, organism-based; settings: dose 20-60 mg/kg, time <= 22.0 day
[16] = Stability of the compound assessed as half life in presence of glutathione at pH 7.4; format: physicochemical; settings: solution containing glutathione
[17] = Toxicity in BALB/c nude mouse assessed as effect on heart at 20 to 60 mg/kg, ip measured after 22 days by H and E staining based analysis; format: organism-based; settings: in vivo, 528 h, dose 20-60 mg/kg, time 22 day
[18] = molecular target: T1, Serine/threonine-protein kinase AKT (Homo sapiens); experiment: Inhibition of AKT phosphorylation in human NCI-H1975 cells incubated for 24 hrs by Western blot analysis; format: cell-based; settings: dose 0.1-10 µM
[19] = system: Osimertinib-resistant NCI-H1975 cell; experiment: Induction of apoptosis in human Osimertinib-resistant NCI-H1975 cell (AZDR) assessed as caspase3/7 activation using caspase-glo 3/7 as substrate at 0.1 to 10 uM by luminescence based analysis; format: functional; settings: dose 0.1-10 µM, time 24-72 hrs, TDE = time-dependent effect
[20] = system: Osimertinib-resistant NCI-H1975 cell; experiment: Induction of apoptosis in human Osimertinib-resistant NCI-H1975 cell (AZDR) assessed as early apoptotic cells at 1 uM incubated for 24 hrs by Annexin V and propidium iodide staining based flow cytometry analysis (reference value: 3.38%); format: functional
[21] = system: Osimertinib-resistant NCI-H1975 cell; experiment: Induction of apoptosis in human Osimertinib-resistant NCI-H1975 cell (AZDR) assessed as late apoptotic cells at 0.1 uM incubated for 24 hrs by Annexin V and propidium iodide staining based flow cytometry analysis (reference value: 1.06%); format: functional
[22] = system: Osimertinib-resistant NCI-H1975 cell; experiment: Inhibition of cell migration in human Osimertinib-resistant NCI-H1975 cell (AZDR) measured after 24 hrs by wound healing assay; format: functional, cell-based; settings: dose 0.1-10 µM
[23] = Toxicity in BALB/c nude mouse assessed as effect on body weight at 20 to 60 mg/kg, ip measured upto 22 days; format: organism-based; settings: in vivo, 528 h, dose 20-60 mg/kg, time < 22 day
[24] = system: Osimertinib-resistant NCI-H1975 cell; experiment: Induction of apoptosis in human Osimertinib-resistant NCI-H1975 cell (AZDR) assessed as late apoptotic cells at 10 uM incubated for 24 hrs by Annexin V and propidium iodide staining based flow cytometry analysis (reference value: 1.06%); format: functional
[25] = system: NCI-H1975; experiment: Antiproliferative activity against human NCI-H1975 cells incubated for 72 hrs by MTT assay; format: functional, cell-based; settings: NCI-H1975, 72 h
[26] = system: Osimertinib-resistant NCI-H1975 cell; experiment: Induction of apoptosis in human Osimertinib-resistant NCI-H1975 cell (AZDR) assessed as caspase3/7 activation using caspase-glo 3/7 as substrate incubated for 24 hrs by luminescence based analysis; format: functional; settings: dose 0.1-10 µM
[27] = system: Osimertinib-resistant NCI-H1975 cell; experiment: Induction of apoptosis in human Osimertinib-resistant NCI-H1975 cell (AZDR) assessed as early apoptotic cells at 10 uM incubated for 24 hrs by Annexin V and propidium iodide staining based flow cytometry analysis (reference value: 3.38%); format: functional
[28] = system: Osimertinib-resistant NCI-H1975 cell; experiment: Inhibition of colony formation in human Osimertinib-resistant NCI-H1975 cell (AZDR) measured after 14 days by crystal violet staining based analysis; format: functional; settings: dose 0.1-10 µM, time 14.0 day

For `C=CC(=O)Nc1cccc(Nc2nc(Nc3cnn(CC)c3)nc3ccc(Cl)cc23)c1`, the Activity [1] was “Non-Toxic”, the inhibition [2] was “Active” and the Activity [3] was “Non-Toxic”. The Activity [4] was “Non-Toxic”, the inhibition [5] was “Active” and the IC50 [6] was 1270 nM. For the same molecule, the inhibition [7] was 81%, the Activity [8] was 10.7% and the Activity [9] was “Non-Toxic”. The IC50 [10] was 670 nM, the Activity [11] was “Dose-Dependent Effect” and the Activity [12] was “Dose-Dependent Effect”. The Activity [13] was 16.1%, the Activity [14] was “Dose-Dependent Effect” and the Activity [15] was “Dose-Dependent Effect”. The half-life [16] was 13.8 h, the Activity [17] was “Non-Toxic” and the inhibition [18] was “Dose-Dependent Effect”. For the same molecule, the Activity [19] was “Tde”, the Activity [20] was 17.1% and the Activity [21] was 9.97%. For the same molecule, the inhibition [22] was “Active”, the Activity [23] was “Non-Toxic” and the Activity [24] was 30.7%. For the same molecule, the IC50 [25] was 1040 nM, the Activity [26] was “Dose-Dependent Effect” and the Activity [27] was 48.6%. The inhibition [28] was “Dose-Dependent Effect”.
